According to patent US10689361B2, “Quinoline derivative and use thereof” (priority 2016, dated 2020):

How the values were obtained:
PDGFRβ = PDGFRβ (Homo sapiens, UniProt P09619); experiment: Caliper Mobility Shift Assay, kinase inhibition; format: biochemical; conditions: read-out: Kinase inhibitory activity (IC50, nM) PDGFRβ
VEGFR3 = VEGFR3 (Homo sapiens, UniProt P35916); experiment: Caliper Mobility Shift Assay, kinase inhibition; format: biochemical; conditions: read-out: Kinase inhibitory activity (IC50, nM) VEGFR3
[1] = Pharmacokinetic property evaluation test in CD-1 mice, intravenous; format: in vivo; conditions: both sexes, mouse, plasma, intravenous injection, 3 mg/kg, single administration, non-compartment model; for half-life: read-out: Terminal t1/2 (converted); for Vd: read-out: Vss
Method: Experimental animals: CD-1 mice, males and females; weight: 20-25 g;
[…] Route of administration: intravenous injection. […] Dosage: 3 mg/kg.
Sample collection: Blood was collected at the following time points: 5 min, 15 min, 30 min, 1 hr, 2 hr, 4 hr, 8 hr, and 24 hr after administration.
Sample analysis: The collected samples were tested using the LC-MS/MS method. The instrument model was API4000.
Pharmacokinetic data analysis: The obtained plasma concentration data were fitted and calculated according to the non-compartment model using WinNolin, and some results are summarized in Table 2.

EGFR = EGFR (Homo sapiens, UniProt P00533); experiment: Caliper Mobility Shift Assay, kinase inhibition; format: biochemical; conditions: read-out: Kinase inhibitory activity (IC50, nM) EGFR
Method: (§1) The semi-inhibitory concentration IC50 (the concentration of the compound required to inhibit the enzymatic activity to 50%) of a compound was measured by mixing a fixed enzyme with a specific substrate and the test compound of different concentrations. The test method used was Caliper Mobility Shift Assay, the kinases tested were VEGFR1, VEGFR2, VEGFR3, FLT3, PDGFRα, PDGFRβ, FGFR1, RET, EGFR and IGF1R, and the standard reference compound used was staurosporine.

IGF1R = IGF1R (Homo sapiens, UniProt P08069); experiment: Caliper Mobility Shift Assay, kinase inhibition; format: biochemical; conditions: read-out: Kinase inhibitory activity (IC50, nM) IGF1R
Method: as §1

FGFR1 = FGFR1 (Homo sapiens, UniProt P11362); experiment: Caliper Mobility Shift Assay, kinase inhibition; format: biochemical; conditions: read-out: Kinase inhibitory activity (IC50, nM) FGFR1
RET = RET (Homo sapiens, UniProt P07949); experiment: Caliper Mobility Shift Assay, kinase inhibition; format: biochemical; conditions: read-out: Kinase inhibitory activity (IC50, nM) RET
FLT3 = target: T1, FLT3 (Homo sapiens, UniProt P36888); experiment: Caliper Mobility Shift Assay, kinase inhibition; format: biochemical; conditions: read-out: Kinase inhibitory activity (IC50, nM) FLT3
T1 sequence (P36888 27-993): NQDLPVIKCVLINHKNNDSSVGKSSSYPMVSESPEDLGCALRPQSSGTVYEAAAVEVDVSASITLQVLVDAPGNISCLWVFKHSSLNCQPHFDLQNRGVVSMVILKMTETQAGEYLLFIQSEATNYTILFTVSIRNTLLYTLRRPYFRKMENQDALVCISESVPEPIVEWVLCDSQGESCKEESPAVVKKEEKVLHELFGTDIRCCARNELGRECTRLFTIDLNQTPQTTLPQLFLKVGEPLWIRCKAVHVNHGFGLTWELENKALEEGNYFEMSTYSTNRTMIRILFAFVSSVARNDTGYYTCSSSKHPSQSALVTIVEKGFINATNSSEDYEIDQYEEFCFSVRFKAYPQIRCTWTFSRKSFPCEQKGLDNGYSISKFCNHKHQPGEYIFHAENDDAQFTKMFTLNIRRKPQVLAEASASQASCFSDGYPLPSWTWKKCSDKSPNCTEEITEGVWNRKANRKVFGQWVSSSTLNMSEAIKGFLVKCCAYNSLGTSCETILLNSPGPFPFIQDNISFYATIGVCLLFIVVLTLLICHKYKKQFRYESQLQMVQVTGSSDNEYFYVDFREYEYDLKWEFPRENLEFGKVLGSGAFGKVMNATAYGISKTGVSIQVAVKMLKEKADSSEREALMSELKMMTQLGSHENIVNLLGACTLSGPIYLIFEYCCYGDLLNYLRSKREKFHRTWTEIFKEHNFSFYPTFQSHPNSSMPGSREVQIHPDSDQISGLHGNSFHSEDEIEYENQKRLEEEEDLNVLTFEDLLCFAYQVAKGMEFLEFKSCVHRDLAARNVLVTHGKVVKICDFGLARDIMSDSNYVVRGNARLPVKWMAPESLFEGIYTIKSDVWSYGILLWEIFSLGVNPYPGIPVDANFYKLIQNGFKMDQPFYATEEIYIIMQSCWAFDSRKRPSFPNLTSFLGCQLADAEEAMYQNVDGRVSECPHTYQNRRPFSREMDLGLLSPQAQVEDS

VEGFR1 = VEGFR1 (Homo sapiens, UniProt P17948); experiment: Caliper Mobility Shift Assay, kinase inhibition; format: biochemical; conditions: read-out: Kinase inhibitory activity (IC50, nM) VEGFR1
VEGFR2 = VEGFR2 (Homo sapiens, UniProt P35968); experiment: Caliper Mobility Shift Assay, kinase inhibition; format: biochemical; conditions: read-out: Kinase inhibitory activity (IC50, nM) VEGFR2
PDGFRα = PDGFRα (Homo sapiens, UniProt P16234); experiment: Caliper Mobility Shift Assay, kinase inhibition; format: biochemical; conditions: read-out: Kinase inhibitory activity (IC50, nM) PDGFRα

Chain of VEGFR3 (P35916 25-1363, species assumed): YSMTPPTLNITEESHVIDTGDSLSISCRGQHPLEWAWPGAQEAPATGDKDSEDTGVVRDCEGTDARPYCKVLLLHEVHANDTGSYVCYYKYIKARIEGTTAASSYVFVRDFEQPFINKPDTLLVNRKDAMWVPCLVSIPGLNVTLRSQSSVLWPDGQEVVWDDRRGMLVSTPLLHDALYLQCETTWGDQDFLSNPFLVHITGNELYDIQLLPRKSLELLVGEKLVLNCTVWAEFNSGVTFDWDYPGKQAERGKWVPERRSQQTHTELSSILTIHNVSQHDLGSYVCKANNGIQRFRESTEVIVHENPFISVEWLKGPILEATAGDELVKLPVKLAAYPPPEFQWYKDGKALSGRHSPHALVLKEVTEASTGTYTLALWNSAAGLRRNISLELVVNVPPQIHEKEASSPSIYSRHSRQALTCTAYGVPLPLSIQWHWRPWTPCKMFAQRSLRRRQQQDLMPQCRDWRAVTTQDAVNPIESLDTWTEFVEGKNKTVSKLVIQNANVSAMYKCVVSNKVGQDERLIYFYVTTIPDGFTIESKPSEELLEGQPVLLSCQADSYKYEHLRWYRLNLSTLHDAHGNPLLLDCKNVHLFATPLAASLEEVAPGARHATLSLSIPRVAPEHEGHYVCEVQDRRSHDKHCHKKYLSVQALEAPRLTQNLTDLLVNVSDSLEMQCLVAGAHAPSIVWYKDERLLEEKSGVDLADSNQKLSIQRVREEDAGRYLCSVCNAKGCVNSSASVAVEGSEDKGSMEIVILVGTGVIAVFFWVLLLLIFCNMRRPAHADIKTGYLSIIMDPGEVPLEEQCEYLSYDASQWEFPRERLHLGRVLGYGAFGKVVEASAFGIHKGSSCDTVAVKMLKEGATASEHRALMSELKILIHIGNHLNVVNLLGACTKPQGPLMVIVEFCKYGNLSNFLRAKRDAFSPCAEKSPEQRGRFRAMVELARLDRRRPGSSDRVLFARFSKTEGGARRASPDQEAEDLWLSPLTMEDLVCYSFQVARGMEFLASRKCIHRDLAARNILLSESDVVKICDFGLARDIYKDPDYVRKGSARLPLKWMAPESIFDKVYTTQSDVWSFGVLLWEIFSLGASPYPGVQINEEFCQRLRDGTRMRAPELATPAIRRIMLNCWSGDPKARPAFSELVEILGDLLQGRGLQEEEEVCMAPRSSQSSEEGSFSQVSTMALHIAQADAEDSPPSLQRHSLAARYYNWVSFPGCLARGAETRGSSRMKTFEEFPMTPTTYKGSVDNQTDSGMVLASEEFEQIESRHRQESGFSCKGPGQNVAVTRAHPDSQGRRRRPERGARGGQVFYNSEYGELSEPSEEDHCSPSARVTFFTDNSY
Chain of VEGFR1 (P17948 27-1338, species assumed): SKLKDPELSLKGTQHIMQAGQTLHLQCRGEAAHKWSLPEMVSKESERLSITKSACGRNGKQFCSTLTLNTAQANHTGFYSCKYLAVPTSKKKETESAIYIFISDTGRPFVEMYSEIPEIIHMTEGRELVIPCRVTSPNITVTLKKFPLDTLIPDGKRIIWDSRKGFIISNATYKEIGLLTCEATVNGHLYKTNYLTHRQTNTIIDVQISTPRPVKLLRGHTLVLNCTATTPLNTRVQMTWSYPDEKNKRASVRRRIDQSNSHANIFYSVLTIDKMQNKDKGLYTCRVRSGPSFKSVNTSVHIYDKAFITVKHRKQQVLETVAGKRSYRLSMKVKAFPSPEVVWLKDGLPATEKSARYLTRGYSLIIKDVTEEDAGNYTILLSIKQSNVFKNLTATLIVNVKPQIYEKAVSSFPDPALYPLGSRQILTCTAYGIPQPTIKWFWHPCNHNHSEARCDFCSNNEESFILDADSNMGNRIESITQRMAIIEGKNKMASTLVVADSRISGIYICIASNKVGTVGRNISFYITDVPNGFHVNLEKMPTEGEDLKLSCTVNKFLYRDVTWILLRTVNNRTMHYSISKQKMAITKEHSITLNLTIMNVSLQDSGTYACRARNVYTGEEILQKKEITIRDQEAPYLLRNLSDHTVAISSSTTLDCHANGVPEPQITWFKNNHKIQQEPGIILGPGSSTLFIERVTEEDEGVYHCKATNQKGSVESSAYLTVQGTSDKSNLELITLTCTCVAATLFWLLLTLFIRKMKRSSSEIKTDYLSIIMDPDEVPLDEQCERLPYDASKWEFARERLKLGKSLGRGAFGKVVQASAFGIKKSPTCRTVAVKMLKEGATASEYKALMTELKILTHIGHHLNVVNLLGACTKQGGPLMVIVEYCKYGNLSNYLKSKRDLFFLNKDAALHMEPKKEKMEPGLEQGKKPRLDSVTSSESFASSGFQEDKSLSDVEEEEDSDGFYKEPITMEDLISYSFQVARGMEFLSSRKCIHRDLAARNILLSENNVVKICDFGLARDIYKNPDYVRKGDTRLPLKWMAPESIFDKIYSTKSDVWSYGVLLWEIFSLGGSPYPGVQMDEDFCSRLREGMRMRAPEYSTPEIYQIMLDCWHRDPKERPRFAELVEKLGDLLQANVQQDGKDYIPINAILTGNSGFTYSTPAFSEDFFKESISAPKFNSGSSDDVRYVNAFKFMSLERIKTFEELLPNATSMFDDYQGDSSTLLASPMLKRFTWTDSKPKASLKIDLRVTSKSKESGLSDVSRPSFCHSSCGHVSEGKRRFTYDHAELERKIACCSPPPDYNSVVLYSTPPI
Chain of IGF1R (P08069 31-1367, species assumed): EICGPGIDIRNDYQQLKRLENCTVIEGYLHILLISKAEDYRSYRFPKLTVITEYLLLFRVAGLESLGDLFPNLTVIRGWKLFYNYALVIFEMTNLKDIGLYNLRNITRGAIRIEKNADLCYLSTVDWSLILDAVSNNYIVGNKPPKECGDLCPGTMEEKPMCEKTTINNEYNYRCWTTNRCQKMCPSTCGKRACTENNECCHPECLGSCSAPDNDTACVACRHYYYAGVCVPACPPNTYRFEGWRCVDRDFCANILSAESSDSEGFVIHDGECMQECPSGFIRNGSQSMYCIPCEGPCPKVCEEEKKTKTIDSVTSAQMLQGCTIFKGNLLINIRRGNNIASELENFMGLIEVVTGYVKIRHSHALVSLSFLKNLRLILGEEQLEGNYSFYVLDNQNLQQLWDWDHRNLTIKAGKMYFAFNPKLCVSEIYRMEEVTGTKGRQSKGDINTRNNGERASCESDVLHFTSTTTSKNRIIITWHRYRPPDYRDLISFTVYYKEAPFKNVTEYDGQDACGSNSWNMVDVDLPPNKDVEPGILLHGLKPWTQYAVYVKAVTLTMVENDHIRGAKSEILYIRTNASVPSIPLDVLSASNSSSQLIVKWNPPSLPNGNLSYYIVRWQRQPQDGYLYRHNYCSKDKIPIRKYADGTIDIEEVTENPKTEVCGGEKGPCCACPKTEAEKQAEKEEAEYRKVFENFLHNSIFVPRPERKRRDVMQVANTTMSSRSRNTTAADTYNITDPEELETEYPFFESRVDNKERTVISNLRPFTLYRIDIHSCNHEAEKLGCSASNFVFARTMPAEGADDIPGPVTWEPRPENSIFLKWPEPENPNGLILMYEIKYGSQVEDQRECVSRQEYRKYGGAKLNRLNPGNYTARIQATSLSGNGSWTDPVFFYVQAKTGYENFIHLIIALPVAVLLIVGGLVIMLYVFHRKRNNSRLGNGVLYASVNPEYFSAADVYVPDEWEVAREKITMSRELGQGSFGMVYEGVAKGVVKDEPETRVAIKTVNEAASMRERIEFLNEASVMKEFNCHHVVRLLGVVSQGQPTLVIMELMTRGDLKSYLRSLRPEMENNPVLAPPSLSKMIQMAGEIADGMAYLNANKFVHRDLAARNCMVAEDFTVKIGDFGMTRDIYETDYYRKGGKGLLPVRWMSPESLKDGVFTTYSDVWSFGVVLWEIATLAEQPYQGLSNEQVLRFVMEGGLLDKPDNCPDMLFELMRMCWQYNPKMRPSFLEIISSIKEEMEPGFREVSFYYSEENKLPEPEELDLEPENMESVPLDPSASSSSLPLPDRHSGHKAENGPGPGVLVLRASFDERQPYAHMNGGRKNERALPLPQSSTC
Chain of PDGFRβ (P09619 33-1106, species assumed): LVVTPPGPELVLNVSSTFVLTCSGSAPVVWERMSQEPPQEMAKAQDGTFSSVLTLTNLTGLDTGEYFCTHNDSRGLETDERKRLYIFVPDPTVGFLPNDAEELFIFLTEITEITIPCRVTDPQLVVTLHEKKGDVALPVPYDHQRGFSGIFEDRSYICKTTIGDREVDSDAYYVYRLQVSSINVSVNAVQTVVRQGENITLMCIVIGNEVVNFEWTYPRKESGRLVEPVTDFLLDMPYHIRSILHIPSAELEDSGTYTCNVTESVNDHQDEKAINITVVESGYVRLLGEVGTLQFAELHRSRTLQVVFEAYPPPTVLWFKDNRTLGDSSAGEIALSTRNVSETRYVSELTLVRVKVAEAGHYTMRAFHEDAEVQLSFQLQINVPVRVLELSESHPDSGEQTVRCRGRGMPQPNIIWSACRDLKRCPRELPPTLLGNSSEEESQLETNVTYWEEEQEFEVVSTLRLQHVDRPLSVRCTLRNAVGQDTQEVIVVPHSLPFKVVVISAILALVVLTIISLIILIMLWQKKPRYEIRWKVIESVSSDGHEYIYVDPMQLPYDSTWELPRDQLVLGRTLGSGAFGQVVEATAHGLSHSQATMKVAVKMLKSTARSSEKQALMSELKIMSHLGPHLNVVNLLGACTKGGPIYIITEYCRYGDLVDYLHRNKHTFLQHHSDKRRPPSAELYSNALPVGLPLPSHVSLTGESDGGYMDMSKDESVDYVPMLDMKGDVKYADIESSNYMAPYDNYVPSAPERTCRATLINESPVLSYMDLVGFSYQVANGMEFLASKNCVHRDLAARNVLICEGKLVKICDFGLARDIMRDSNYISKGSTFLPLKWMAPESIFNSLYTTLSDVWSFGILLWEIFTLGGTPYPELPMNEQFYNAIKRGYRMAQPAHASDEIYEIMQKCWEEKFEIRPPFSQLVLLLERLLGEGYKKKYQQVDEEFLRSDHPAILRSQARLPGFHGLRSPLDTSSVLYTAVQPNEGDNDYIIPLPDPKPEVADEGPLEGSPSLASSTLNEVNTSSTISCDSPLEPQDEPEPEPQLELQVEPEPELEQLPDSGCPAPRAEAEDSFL

SMILES | IC50 (PDGFRβ) | IC50 (VEGFR3) | AUC(0-t) [1] | MRT inf [1] | clearance [1] | half-life [1] | Vd [1] | IC50 (EGFR) | IC50 (IGF1R) | IC50 (FGFR1) | IC50 (RET) | IC50 (FLT3) | IC50 (VEGFR1) | IC50 (VEGFR2) | IC50 (PDGFRα)
COc1cc2nccc(Oc3ccc(NC(=O)Nc4cnn(C)c4)cc3F)c2cc1C(N)=O [Compound of Formula Ib] | 165 nM | 84 nM | 1600 ng·h/mL | 49.2 min | 30.5 mL/min/kg | 134 min | 1.48 L/kg | > 200000 nM | > 200000 nM | > 1000 nM | 290 nM | 890 nM | 555 nM | 3 nM | 37 nM
COc1cc2nccc(Oc3ccc(NC(=O)Nc4cn[nH]c4)cc3F)c2cc1C(N)=O [Compound of Formula Ic] | 151 nM | 34 nM | – | – | – | – | – | > 200000 nM | > 200000 nM | > 1000 nM | 204 nM | 708 nM | 831 nM | 11 nM | 42 nM
CNC(=O)c1cc2c(Oc3ccc(NC(=O)Nc4cnn(C)c4)cc3F)ccnc2cc1OC [Compound of Formula Ia] | 110 nM | 56 nM | 2040 ng·h/mL | 20.4 min | 25.2 mL/min/kg | 28.2 min | 0.525 L/kg | > 500000 nM | > 500000 nM | > 1000 nM | 106 nM | 576 nM | 381 nM | 2.4 nM | 27 nM
CNC(=O)c1cc(Oc2ccc(NC(=O)Nc3ccc(Cl)c(C(F)(F)F)c3)c(F)c2)ccn1 [Regorafenib, regorafenib, reference compound] | – | – | – | – | – | – | – | 10600 nM | > 400000 nM | – | – | – | – | – | –
